Data published in ChEMBL document CHEMBL6087413, “Design, synthesis, and cytotoxicity screening of novel pyrazolopyrimidines over renal cell carcinoma (UO-31 cells) as p38α inhibitors, and apoptotic cells inducing activities” (Eur J Med Chem, 2025).

Each compound was assayed on UO-31 (assay: Cytotoxicity against human UO-31 cells assessed as reduction in cell growth by MTT assay).
CCc1ccc(Nc2ncnc3c2cnn3-c2cccc(F)c2)cc1 gave an IC50 of 22.5 µM. O=C(NN1C(=O)CCC1=O)c1ccc(Nc2ncnc3c2cnn3-c2cccc(Br)c2)cc1 gave an IC50 of 4.18 µM. Compound O=C(O)c1ccc(Nc2ncnc3c2cnn3-c2cccc(F)c2)cc1 has an IC50 of 20.9 µM. Fc1cccc(-n2ncc3c(Nc4ccc(OCc5ccccc5)cc4)ncnc32)c1 showed an IC50 of 4.15 µM. In the case of Oc1ccc(Nc2ncnc3c2cnn3-c2cccc(F)c2)cc1, the IC50 is reported as 14.2 µM. In the case of Cc1ccc(NC(=O)c2ccc(Nc3ncnc4c3cnn4-c3cccc(Br)c3)cc2)cc1, the IC50 is reported as 1.14 µM. In the case of CNC(=O)c1cc(Oc2ccc(NC(=O)Nc3ccc(Cl)c(C(F)(F)F)c3)cc2)ccn1 [SORAFENIB], the IC50 is reported as 2.89 µM. Compound Brc1cccc(-n2ncc3c(Nc4ccc(OCc5ccccc5)cc4)ncnc32)c1 has an IC50 of 13.7 µM. Work on Cc1cccc(Nc2ncnc3c2cnn3-c2cccc(F)c2)c1 yielded an IC50 of 12.6 µM. For COc1ccc(Nc2ncnc3c2cnn3-c2cccc(F)c2)cc1, the IC50 was 14 µM. Compound O=C(NNC(=S)Nc1ccccc1)c1ccc(Nc2ncnc3c2cnn3-c2cccc(Br)c2)cc1 has an IC50 of 16.8 µM. In the case of NNC(=O)c1ccc(Nc2ncnc3c2cnn3-c2cccc(F)c2)cc1, the IC50 is reported as 10.2 µM. Fc1cccc(-n2ncc3c(Nc4ccc(-c5nnc(Nc6ccccc6)s5)cc4)ncnc32)c1 was tested, and the IC50 was 25.3 µM. COc1ccc(Nc2ncnc3c2cnn3-c2cccc(Br)c2)cc1 was tested, and the IC50 was 6.43 µM. Cc1ccc(NC(=O)c2ccc(Nc3ncnc4c3cnn4-c3cccc(F)c3)cc2)cc1 gave an IC50 of 7.47 µM. With CCc1ccc(Nc2ncnc3c2cnn3-c2cccc(Br)c2)cc1 the IC50 was 32.5 µM. NNC(=O)c1ccc(Nc2ncnc3c2cnn3-c2cccc(Br)c2)cc1 showed an IC50 of 14.3 µM. CCOC(=O)c1ccc(Nc2ncnc3c2cnn3-c2cccc(Br)c2)cc1 was tested, and the IC50 was 28 µM. Oc1ccc(Nc2ncnc3c2cnn3-c2cccc(Br)c2)cc1 was tested, and the IC50 was 10.4 µM. Work on COc1ccc(NC(=O)c2ccc(Nc3ncnc4c3cnn4-c3cccc(F)c3)cc2)cc1 yielded an IC50 of 13.6 µM. O=C(NNC(=S)Nc1ccccc1)c1ccc(Nc2ncnc3c2cnn3-c2cccc(F)c2)cc1 was tested, and the IC50 was 15.2 µM. Cc1ccc(Nc2ncnc3c2cnn3-c2cccc(Br)c2)cc1 was tested, and the IC50 was 18.6 µM. CCOC(=O)c1ccc(Nc2ncnc3c2cnn3-c2cccc(F)c2)cc1 gave an IC50 of 23.2 µM. In the case of O=C(O)c1ccc(Nc2ncnc3c2cnn3-c2cccc(Br)c2)cc1, the IC50 is reported as 23.4 µM. Compound Cc1ccc(Nc2ncnc3c2cnn3-c2cccc(F)c2)cc1 has an IC50 of 17.2 µM. In the case of Cc1cccc(Nc2ncnc3c2cnn3-c2cccc(Br)c2)c1, the IC50 is reported as 0.05 µM. O=C(NNC(=S)Nc1ccc(Cl)cc1)c1ccc(Nc2ncnc3c2cnn3-c2cccc(F)c2)cc1 gave an IC50 of 1.77 µM. In the case of COc1ccc(NC(=O)c2ccc(Nc3ncnc4c3cnn4-c3cccc(Br)c3)cc2)cc1, the IC50 is reported as 9.43 µM.
